Laboratory results reported in US20240287089A1, “Preparation and Uses of 7-Azaindenoisoquinolines” (Purdue Research Foundation, priority 0001, published 2024).

Columns and labels:
[1] = target: 3′-TAMRA-labeled MycG4 DNA; assay: Fluorescence binding assay; conditions: 20° C., 100 mM K+ buffer, pH 7.0; read-out: Apparent Binding Affinity Kd, app
Procedure: Binding Affinity to the Myc G-Quadruplex. Binding affinity of eight 7-aza-8,9-methylenedioxyindenoisoquinolines to MycG4 was determined using a fluorescence binding assay with a 3′-TAMRA-labeled MycG4 DNA. Monitoring TAMRA emission upon drug titration afforded binding isotherms, from which apparent binding affinities, Kd,app, were derived.
Fluorescence-Based Binding Assays. Fluorescence-based binding assays were performed on a Jasco FP-8300 spectrofluorometer equipped with a temperature controller at 20° C. in a quartz cuvette with a 10 mm path length. 3′-TAMRA-labeled MycG4 DNA (Sigma-Aldrich) was diluted to 20 nM using a 75 mM KCl/25 mM potassium phosphate buffer, pH 7.0. […] Fluorescence intensity at 580 nm, the maximum for the free DNA, was plotted against drug:DNA ratio. The apparent binding dissociation constant, Kd,app, was derived for the binding of each compound. Using OriginPro software (OriginLab Corp., United States) the change in fluorescence intensity was fitted to a one-site binding equation,
where B0 is the initial fluorescence intensity, B is maximum change in fluorescence intensity, R is DNA concentration, and L is drug:DNA ratio.

RAJI lymphoma cells = assay: MTS cell viability IC50 assay; assay type: cell-based; conditions: Homo sapiens, Raji, 72 h
Procedure: Cytotoxicity Results in Raji Non-Hodgkin's Lymphoma Cells. MTS experiments were then conducted to test the anti-proliferative effects of 7-aza-8,9-methylenedioxyindenoisoquinolines in Raji cells. Cells were incubated at 2-2000 nM of each drug for 72 h, and cell viabilities were quantified using the MTS assay. […] This potency trend generally correlated with the western blot results, in which G106 and G108 […] show weaker Myc downregulation.
(§1) MTS Cell Viability IC50 Assay. Drug solutions for MTS IC50 assays of suspension cell lines were made from DMSO stocks by serial-dilutions in 1×PBS (10010-031, Gibco). To set up treatments, drug solutions were plated in triplicates to 96-well tissue culture plates, to which cell-containing media was added to a total volume of 100 μL/well. 100%-viability controls were untreated cells. 2000 cells/well were plated for all suspension cell lines except 3000 cells/well for KMS-27 and 10000 cells/well for CHLA-32. Blanks were cell-free media. Drug treatments were maintained for 72 hr at 37° C. with 5% CO2. To quantify cells, CellTiter 96 AQueous MTS Reagent Powder (G1111, Promega) was dissolved and mixed with phenazine methosulfate (PMS, Sigma-Aldrich P9625) according to manufacturer's instructions. MTS/PMS mix ([…]) was added to treatment wells, 100%-viability control wells, and blank wells. Colors were developed at 37° C. with 5% CO2 for 4 h and absorbance at 490 nm was measured by BioTek Synergy 4 system. To obtain %-viability, A490 values were corrected by blank subtraction, normalized to 100%-viability control, and averaged. Average %-viabilities were plotted against drug dosages to obtain dose-response curves. […] For adherent cell lines, the MTS IC50 assays were conducted the same way as for suspension cell lines except for cell plating and drug treatment. For cell plating, 50 μL of 2000 cells were plated in triplicates to a 96-well tissue culture plate. Cells were allowed sufficient time to become adherent. Serial-diluted drug solutions were made the same way as in the MTS IC50 assays. To set up treatments, drug solutions were mixed with media to two-fold of the final concentrations, and 50 μL of such drug-media mix was then added to 50 μL of plated cells.

AMO-1 = assay: MTS GI50, Myc-dependent panel; assay type: cell-based; conditions: Homo sapiens, AMO1; AMO-1, 72 h; read-out: GI50
Procedure: (§2) Cytotoxicity Results in Myc-dependent Cancer Cell Lines.
as §1

ARD = assay: MTS GI50, Myc-dependent panel; assay type: cell-based; conditions: ARD, 72 h; read-out: GI50
Procedure: as §2, §1

CCRF-CRM = assay: MTS GI50, Myc-dependent panel; assay type: cell-based; conditions: CCRF-CRM, 72 h; read-out: GI50
Procedure: as §2, §1

CHLA-32 = assay: MTS GI50, Myc-dependent panel; assay type: cell-based; conditions: CHLA-32, 72 h; read-out: GI50
Procedure: as §2, §1

CHLA-99 = assay: MTS GI50, Myc-dependent panel; assay type: cell-based; conditions: CHLA-99, 72 h; read-out: GI50
Procedure: as §2, §1

HL-60 = assay: MTS GI50, Myc-dependent panel; assay type: cell-based; conditions: Homo sapiens, HL-60, 72 h; read-out: GI50
Procedure: as §2, §1

K-562 = assay: MTS GI50, Myc-dependent panel; assay type: cell-based; conditions: Homo sapiens, K562; K-562, 72 h; read-out: GI50
Procedure: as §2, §1

KMS-27 = assay: MTS GI50, Myc-dependent panel; assay type: cell-based; conditions: KMS-27, 72 h; read-out: GI50
Procedure: as §2, §1

Kasumi-1 = assay: MTS GI50, Myc-dependent panel; assay type: cell-based; conditions: Homo sapiens; Kasumi-1, 72 h; read-out: GI50
Procedure: as §2, §1

L-363 = assay: MTS GI50, Myc-dependent panel; assay type: cell-based; conditions: Homo sapiens, L-363, 72 h; read-out: GI50
Procedure: as §2, §1

MCF-7 = assay: MTS GI50, Myc-dependent panel; assay type: cell-based; conditions: Homo sapiens, MCF7; MCF-7, 72 h; read-out: GI50
Procedure: as §2, §1

MDA-MB-231 = assay: MTS GI50, Myc-dependent panel; assay type: cell-based; conditions: Homo sapiens, MDA-MB-231, 72 h; read-out: GI50
Procedure: as §2, §1

MOLT-4 = assay: MTS GI50, Myc-dependent panel; assay type: cell-based; conditions: Homo sapiens, MOLT-4, 72 h; read-out: GI50
Procedure: as §2, §1

RD-ES = assay: MTS GI50, Myc-dependent panel; assay type: cell-based; conditions: 72 h, read-out: GI50
Procedure: as §2, §1

RPMI-8226 = assay: MTS GI50, Myc-dependent panel; assay type: cell-based; conditions: Homo sapiens, RPMI-8226, 72 h; read-out: GI50
Procedure: as §2, §1

RS4;11 = assay: MTS GI50, Myc-dependent panel; assay type: cell-based; conditions: Homo sapiens; RS4;11, 72 h; read-out: GI50
Procedure: as §2, §1

SK-N-MC = assay: MTS GI50, Myc-dependent panel; assay type: cell-based; conditions: Homo sapiens, 72 h, read-out: GI50
Procedure: as §2, §1

TC-106 = assay: MTS GI50, Myc-dependent panel; assay type: cell-based; conditions: TC-106, 72 h; read-out: GI50
Procedure: as §2, §1

TC-32 = assay: MTS GI50, Myc-dependent panel; assay type: cell-based; conditions: Homo sapiens, TC-32, 72 h; read-out: GI50
Procedure: as §2, §1

TC-71 = assay: MTS GI50, Myc-dependent panel; assay type: cell-based; conditions: TC-71, 72 h; read-out: GI50
Procedure: as §2, §1

THP-1 = assay: MTS GI50, Myc-dependent panel; assay type: cell-based; conditions: Homo sapiens, THP-1, 72 h; read-out: GI50
Procedure: as §2, §1

Caco-2 cells = assay: Caco-2 permeability; assay type: in vitro ADME; conditions: for Efflux Ratio / Recovery (%)AP-BL / Recovery (%)BL-AP: Caco-2; for Papp (A→B) / Papp (B→A): Caco-2, 5 μM, 2 h
Procedure: Caco-2 Permeability Studies. The Caco-2 plate was removed from the incubator and washed twice with pre-warmed HBSS (10 mM HEPES, pH 7.4), and then incubated at 37° C. for 30 min. The stock solutions of controls compounds were diluted in DMSO to get 1 mM solutions and then diluted with HBSS (10 mM HEPES, pH 7.4) to get 5 μM working solutions. The stock solutions of the test compounds were diluted in DMSO to get 1 mM solutions and then diluted with HBSS (10 mM HEPES, pH 7.4) to get 5 μM working solutions. The final concentration of DMSO in the incubation system was 0.5%. To determine the rate of drug transport in the apical to basolateral direction, 75 μL of 5 μM working solutions of test compounds was added to the Transwell insert (apical compartment) and the wells in the receiver plate (basolateral compartment) were filled with 235 μL of HBSS (10 mM HEPES, pH 7.4). To determine the rate of drug transport in the basolateral to apical direction, 235 μL of 5 μM working solutions of test compounds were to the receiver plate wells (basolateral compartment) and then the Transwell inserts (apical compartment) were filled with 75 μL of HBSS (10 mM HEPES, pH 7.4). Time 0 samples were prepared by transferring 50 μL of 5 μM working solution to wells of the 96-deepwell plate, followed by the addition of 200 μL cold methanol containing appropriate internal standards (IS). The plates were incubated at 37° C. for 2 h. […] An aliquot of 100 μL of the supernatant was mixed with an appropriate volume of ultra-pure water before LC-MS/MS analysis. To determine the Lucifer Yellow leakage after 2 h transport period, stock solution of Lucifer yellow was prepared in ultra-pure water and diluted with HBSS (10 mM HEPES, pH 7.4) to reach the final concentration of 100 μM and then 100 μL of the Lucifer yellow solution was added to each Transwell insert (apical compartment), followed by filling the wells in the receiver plate (basolateral compartment) with 300 μL of HBSS (10 mM HEPES, pH 7.4). The plates were incubated at 37° C. for 30 minutes. Samples (80 μL) were removed directly from the apical and basolateral wells (using the basolateral access holes) and transferred to wells of new 96 wells plates.

[2] = human, 1 μM
Procedure: Analysis of Plasma Protein Binding and Stability in Human and Mouse Blood Plasma by Equilibrium Dialysis. Frozen plasma (stored at −80° C.) was thawed immediately in a 37° C. water bath. The working solutions of test compound and control compound were prepared in DMSO at 200 μM concentration, and the working solutions were spiked into plasma. The final concentration of compound was 1 μM. The final concentration of DMSO was 0.5%. Ketoconazole was used as positive control in the assay. The dialysis membranes were soaked in ultrapure water for 60 min to separate strips, then in 20% ethanol for 20 min, and then finally in dialysis buffer for 20 min. For equilibrium dialysis, each cell contained plasma sample (150 μL) and was dialyzed against an equal volume of dialysis buffer (PBS). The assay was performed in duplicate. The dialysis plate was sealed and incubated at 37° C. with 5% CO2 at 100 rpm for 6 h. At the end of incubation, samples (50 μL) from both buffer and plasma chambers were transferred to wells of a 96-well plate. Plasma (50 μL) was added to each buffer sample and an equal volume of PBS was added to the collected plasma sample. Cold acetonitrile (400 μL) containing internal standards (IS, 100 nM alprazolam, 200 nM labetalol, 200 nM imipramine and 2 μM ketoprofen) was added to precipitate protein and release compounds. Samples were vortexed for 2 min and centrifuged for 30 min at 3,220 g. An aliquot (100 μL) of the supernatant was diluted with ultra-pure H2O (100 μL), and the mixture was used for LC-MS/MS analysis. For stability determination in plasma, a spiked plasma sample (50 μL) was transferred to a new plate and incubated at 37° C., 5% CO2 for 0 and 6 h. At designated time points, PBS (50 μL) was added and mixed thoroughly, followed by the addition of room temperature quench solution [400 μL of acetonitrile containing internal standards (IS, 100 nM alprazolam, 200 nM labetalol, 200 nM imipramine and 2 μM ketoprofen)] to precipitate protein and release compounds. Samples were vortexed for 2 min and centrifuged for 30 min at 3,220 g. An aliquot (400 μL) of the supernatant was diluted by ultra-pure H2O, and the mixture was used for LC-MS/MS analysis. The concentrations of test compounds in the buffer and plasma chambers were determined from peak area ratios.

in vivo = conditions: male, CD1, mouse, iv, 20 mg/kg
Procedure: Brain Penetration Studies. […] The concentrations were determined by LC-MS/MS with direct measurement of the plasma samples. The brain tissue was homogenized with water using a 3:1 ratio of water (mL) to brain (g) before determination of the concentrations (ng/mL) in the brain homogenates, and the homogenate values then were multiplied by a factor of 4 to obtain the brain concentrations (ng/g).

Row | Compound | Kd [1] | IC50 (RAJI lymphoma cells) | GI50 (AMO-1) | GI50 (ARD) | GI50 (CCRF-CRM) | GI50 (CHLA-32) | GI50 (CHLA-99) | GI50 (HL-60) | GI50 (K-562) | GI50 (KMS-27) | GI50 (Kasumi-1) | GI50 (L-363) | GI50 (MCF-7) | GI50 (MDA-MB-231) | GI50 (MOLT-4) | GI50 (RD-ES) | GI50 (RPMI-8226) | GI50 (RS4;11) | GI50 (SK-N-MC) | GI50 (TC-106) | also measured
1 | CCNCCCn1c2c(c3cc(OC)c(OC)cc3c1=O)C(=O)c1cc3c(nc1-2)OCO3 [G104, 6-(3-(Ethylamino)propyl)-2,3-dimethoxy-5H-[1,3]dioxolo[4″,5″:5′,6′]pyrido [3′,2′:4,5]cyclopenta[1,2-c]isoquinoline-5,12(6H)-dione] | 55 nM | 131 nM | 184 nM | 55 nM | 49 nM | 33 nM | 58 nM | 270 nM | 158 nM | 141 nM | 266 nM | 96 nM | > 2000 nM | 476 nM | 13 nM | 20 nM | 190 nM | 38 nM | 137 nM | 157 nM | GI50 (TC-32): 53 nM; GI50 (TC-71): 122 nM; GI50 (THP-1): 358 nM; Efflux Ratio (Caco-2 cells): 9.51; Recovery (%)AP-BL (Caco-2 cells): 54.60%; Recovery (%)BL-AP (Caco-2 cells): 81.64%; Papp (A→B) (Caco-2 cells): 1.69 10^−6, cm/s; Papp (B→A) (Caco-2 cells): 16.04 10^−6, cm/s; % Stability at 6 hrs [2]: 86.15%; Cmax (in vivo): 1610 ng/g; Vd (in vivo): 58.4 L/kg; half-life (in vivo): 7.06 h
2 | COc1cc2c3c(n(CCCNCCO)c(=O)c2cc1OC)-c1nc2c(cc1C3=O)OCO2 [G105, 6-(3-((2-Hydroxyethyl)amino)propyl)-2,3-dimethoxy-5H-[1,3]dioxolo[4″,5″:5′,6′]pyrido[3′,2′:4,5]cyclopenta[1,2-c]isoquinoline-5,12(6H)-dione] | 97 nM | 147 nM | 461 nM | 121 nM | 57 nM | 96 nM | 31 nM | 290 nM | 196 nM | 141 nM | 530 nM | 154 nM | 1390 nM | 806 nM | 12 nM | 22 nM | 559 nM | 34 nM | 173 nM | 202 nM | GI50 (TC-32): 104 nM; GI50 (TC-71): 197 nM; GI50 (THP-1): 300 nM; Efflux Ratio (Caco-2 cells): 7.60; Recovery (%)AP-BL (Caco-2 cells): 75.07%; Recovery (%)BL-AP (Caco-2 cells): 95.77%; Papp (A→B) (Caco-2 cells): 2.39 10^−6, cm/s; Papp (B→A) (Caco-2 cells): 18.16 10^−6, cm/s; % Stability at 6 hrs [2]: 95.42%; Vd (in vivo): 29 L/kg
